Assay results from patent publication US20240316012A1, “METHODS FOR TREATING LYMPHOMA” (Northwestern University, priority 2023, published 2024).

Experiments:
ITK-SYK^+PD-1− lymphoma = test: Torin-1 inhibitor treatment in vivo of lymphoma-bearing NSG mice; design: species or system mouse
Source text: FIGS. 2A-2F PD-1 represses mTOR and HIF1α in pre-malignant cells. […] White arrows indicate spleens. Color intensity represents the calculated MBq/ml uptake of ^18F-FDG. SUV, standardized uptake value ^18F-FDG, ^18F-fluordesoxyglucose. […] SUVmax denotes the maximum signal found in a single voxel across the entire tumor lesion. P=one-way ANOVA and two-sided Student's t-test. Shown are the mean±SEM and individual data points. […] CSI, chemical shift imaging. ROI, region of interest. […] P=two-sided Student's t-test. Shown are the mean±SD and individual data points. […] Spleen-derived single-cell suspensions were generated from ITK-SYK^CD4-creERT2 mice on d5 after TAM. Before fixation, anti-PD-L1 or control antibodies were added for four hours in vitro. […] On day 0, NSG mice received 1,000 ITK-SYK-expressing eGFP+ cells from an ITK-SYK^CD4-creERT2; Pdcd1^−/− mouse, FACS-sorted on d5 after TAM. Mice received 6 mg/kg Torin-1 or vehicle daily via intraperitoneal injection (n=6 mice per group) from day 3 p.i. on. P=two-sided log-rank test. FIG. 2A, Representative mice from two independent experiments. FIG. 2B, Pooled data from two independent experiments. FIG. 2C, Representative amplitudes from one experiment. FIG. 2D, Pooled data from two independent experiments. FIG. 2E, Representative data from two independent experiments with two biological replicates per group. […]

H3K27 acetylation = test: Flow cytometry for H3K27ac after in vitro culture with inhibitors; type: cell-based, mouse; details: exogenous acetate 100 μM; FIG. 11E
Source text: Data are normalized to viable cell number and z-scores per metabolite. […] P=two-sided Student's t-test. The data are presented as the mean±SEM and individual data points for each animal. Cross indicates death of the animal. […] P=two-sided Student's t-test. Shown are the mean±SD and individual data points. […] Data are presented as mean±SD and individual data points. […] P=paired two-sided Student's t-test. Data are presented as the mean±SD. […] Data was normalized as in (a). P=two-sided Student's t-test. The data are presented as the mean±SEM. […] Experiment as in (h) (n=3 mice genotype). Data was normalized as in (a). P=two-sided Student's t-test. Data are presented as the mean±SD. FIGS. 3-D, Representative data from two independent experiments with n=3 biological replicates per group. FIG. 3E, Representative data from two independent experiments with two biological replicates per group. FIG. 3F, Representative data from two independent experiments. FIG. 3G, Representative data from two independent experiments with three biological replicates per group. FIG. 3H, Representative data from one experiment with four biological replicates per group. FIG. 3I, Representative data from one experiment with three biological replicates per group FIGS. 4A-4H show ACLY is a critical effector molecule downstream of PD-1. […] ITK-SYK^+ cells were FACS-sorted from ITK-[…]2 mice on d5 after TAM and 12 h anti-PD-L1 or isotype control antibody treatment (i.p., 200 μg). P=paired two-sided Student's t-test. Data are presented as the mean±SD. […] Spleen-derived single-cell suspensions were FACS-sorted from ITK-[…]2 mice on d5 after TAM and cultured in vitro overnight with anti-PD-L1 or isotype control antibodies and the PI3K inhibitors (“iPI3K”) Wortmannin (20 nM), LY294002 (20 μM), or DMSO. […] Spleen-derived lymphocytes, FACS-sorted from ITK-[…]2 and ITK-[…]2; Pdcd1^-/- mice on d5 after TAM were incubated for three days in vitro. P=two-sided Student's t-test. Data are presented as the mean±SD. […] Protein lysates were generated after 48 h in vitro culture. RNP, ribonucleoprotein. […] P=two-sided Logrank-test. […] ITK-SYK^+ cells were FACS-sorted from ITK-[…]2 (“Pdcd1^+/+”) and ITK-[…]2; Pdcd1^-/- (“Pdcd1^-/-”) mice on d5 after TAM, fixed, and processed for anti-H3K27ac ChIP-seq analysis. ChIP-seq, chromatin immunoprecipitation sequencing; TSS, transcription start site. FIG. 4B, Representative data from three independent experiments with three biological replicates per group. FIG. 4C, Representative data from two independent experiments with two biological replicates. FIGS. 4D and 4E, Representative data from 3 independent experiments. FIGS. 4F and 4G, Data from one experiment with n=5 mice per group. […] (8752, CST), and assessed by flow cytometry. […]

[1] = system: PD-1 wild-type tumors (primary CTCL); test: Inhibitor treatment of human cells in vitro, division index, PD-1 wild-type CTCL cells; type: cell-based; details: 2-DG 1 mM, everolimus 0.1 μM, BMS-303141 10 μM; 6 days; FIG. 7E
Description: (§1) FIGS. 7A-7H show ACLY dependency and AP-1 activation in human PDCD1 defective T-NHL. […] CNA, copy number aberrations. FIG. 7B GSEA for the indicated gene sets based on RNA-seq data from the 21 CTCL patients shown in (a). NES, normalized enrichment score; FDR, false discovery rate. […] P=one-way ANOVA and two-sided Student's t-test. Shown are the mean±SD and individual data points. […] FACS-sorted malignant cells were stimulated with anti-CD3/anti-CD28 beads, and 2-NBDG uptake was determined at the indicated time points. P=two-sided Student's t-test. Shown are the mean±SEM and individual data points. […] CFSE, carboxyfluorescein succinimidyl ester. P=two-sided Student's t-test. The data are presented as the mean±SEM and individual data points. […] Legend as in (5a). […] FIG. 7H GSEA for the indicated gene sets with RNA-seq data from 21 CTCL PDCD1mut” or “PDCD1 wt, and three patients with hyperprogression. NES, normalized enrichment score; FDR, false discovery rate. FIGS. 7A and 7B, Data from a single experiment with 21 patients. FIGS. 7C and 7D, Data from one experiment with three patients per group and three healthy donors. FIG. 7E, Data from one experiment with three patients and three healthy donors. FIGS. 7F and 7G, Data from one experiment with three patients per group. FIG. 7H, Data from a single experiment.
(§2) Isolation of primary human CTCL cells. This study was approved by the Northwestern University Institutional Review Board. Patients provided informed consent for inclusion in the study. […] The tumor burden for each patient was determined using well-validated clinical markers, taking whichever value was higher between Sezary cell counts or the CD26 negative cell number by clinical flow cytometry. These were analyzed in conjunction with white blood cell and absolute lymphocyte counts.
(§3) Inhibitor treatment of human cells in vitro Malignant CTCL cells and CD4^+ T cells from healthy donors were isolated as previously described. […] After 6 days, the cells were analyzed by flow cytometry, and the division index was determined using the FlowJo proliferation tool (v10.6, FlowJo LLC).

[2] = system: PDCD1-mutant lymphoma cells (primary CTCL); test: Inhibitor treatment of human cells in vitro, division index, PDCD1-mutant CTCL cells; type: cell-based; details: 2-DG 1 mM, everolimus 0.1 μM, BMS-303141 10 μM; anti-CD3/anti-CD28 beads, 6 days; FIG. 7E
Description: as §1, §2, §3

## CCC(=O)N1CCN(c2ccc(-n3c(=O)ccc4cnc5ccc(-c6cnc7ccccc7c6)cc5c43)cc2C(F)(F)F)CC1 [Torin-1]
ITK-SYK^+PD-1− lymphoma; NSG mice, Torin-1 intraperitoneal from day 3, 6 mg/kg daily or 10 mg per kg per day 5 days a week, vs vehicle, p=0.0057
  survival of ITK-SYK+PD-1− lymphoma-bearing mice: significantly prolonged survival
ITK-SYK^+PD-1− lymphoma; lymphoma-bearing mice, FIG. 10G
  mTOR activity within the tumor cells in vivo: blocks mTOR activity

## CC(=O)O [acetate]
H3K27 acetylation
  restoration of decreased H3K27ac signals in ACLY inhibitor-treated lymphoma cells: not able to restore

## CO[C@H]1C[C@@H]2CC[C@@H](C)[C@@](O)(O2)C(=O)C(=O)N2CCCC[C@H]2C(=O)O[C@H]([C@H](C)C[C@@H]2CC[C@@H](OCCO)[C@H](OC)C2)CC(=O)[C@H](C)/C=C(\C)[C@@H](O)[C@@H](OC)C(=O)[C@H](C)C[C@H](C)/C=C/C=C/C=C/1C [everolimus]
[1]
  response of stage-matched PD-1 wild-type tumors (relative division index): resistant
[2]
  viability, division and proliferation of PDCD1-mutant cancer cells (relative division index): reduced the viability and division
